Measurements published in patent US20120045835A1, “PORTABLE DEVICE BASED ON IMMOBILIZED CELLS FOR THE DETECTION OF ANALYTES” (priority 2009, published 2012).

Columns and labels:
[1] = system: yeast cells specific to estrogens; experiment: Calibration curves for 17-β estradiol with immobilized yeast biosensor; assay type: cell-based; settings: yeast immobilized in matrix (2% atelocollagen, 0.5% polydimethylsiloxane); similar to liquid cultures
Text: For example, the device employs S. cerevisiae cells specific for compounds with estrogenic/androgenic activity: for this aim an integrative vector with a regulatory element containing two or more tandem copies of the Androgen or Estrogen Responsive Element (ARE/ERE) upstream of the gene encoding for the bioluminescent reporter protein (e.g., luciferase from P. pyralis) and a vector encoding for human androgen or estrogen receptor were introduced in S. cerevisiae cells (A new highly specific and robust yeast androgen bioassay for the detection of agonists and antagonists Toine F. H. Boyce, Richard J. R. Helsdingen, Astrid R. M. Hamers, Majorie B. M. van Duursen, Michel W. F. Nielen, and Ron L. A. P. Hoogenboom). In this work, GFP is used as fluorescent reporter gene that also finds application in the present invention.
Analogously to Example 3, but with slight modifications to single components of the immobilization matrix (2% atelocollagen and 0.5% polydimethylsiloxane), a biosensor based on yeast cells specific to estrogens was immobilized.
Recombinant cells are grown in SC liquid culture (synthetic complete, selective for plasmid auxotrophies) at 30° C. up to an optical density at 600 nm of 0.6. Then, cells are immobilized as previously described.

[2] = system: recombinant E. coli cells specific for Cu^2+; experiment: Calibration curve for copper with immobilized bioluminescent biosensor and control strain; assay type: cell-based; settings: E. coli immobilized in the matrix; signal corrected with control strain constitutively expressing firefly luciferase
Procedure: For each calibration curve a limit of detection is calculated (LOD) according to the standard deviation on the blank signal measured with the calibration curve. It is provided by the analyte concentration corresponding to the signal XLOD:
A calibration curve for copper was performed by employing recombinant E. coli cells specific for Cu^2+ and a control strain that constitutively express firefly luciferase. The use of a control strain allows to correct the analytical signal with a detection limit of 0.05 ppm for Cu^2+.
Cells are grown in selective liquid medium at 37° C. (e.g., Luria Bertani Broth with antibiotic for plasmid maintenance) for each strain up to an optical density at 600 nm in the range 0.6-0.8.
Then, a buffered solution at pH 6.5-7.5 is added to each cell suspension containing nutrients and is mixed 1:2-1:4 with the immobilization matrix.
A solution containing 1% atelocollagen in PBS (NaCl 137 mM, KCl 2.7 mM, NaH2PO4 1.4 mM, Na2HPO4 4.3 mM) at pH 7.4 with decorin final concentration 15% w/w atelocollagen.
Polyvinylpyrrolidone (PVP) and modified polysiloxanes (e.g., polydimethylsiloxane, tetraethyl-orthosilicate) are added to a final concentration of 1% and 0.4%, respectively.

| Structure (SMILES) | limit of detection [1] [pM] | detection limit [2] [ppm] |
| --- | --- | --- |
| C[C@]12CC[C@@H]3c4ccc(O)cc4CC[C@H]3[C@@H]1CC[C@@H]2O [17-β estradiol] | 10 |  |
| [Cu+2] [Cu^2+] |  | 0.05 |
